Results taken from patent US20110105389A1 (priority 2009, published 2011).
Read-outs that look alike come from different tables or passages of the source.

Tests used:
[1] = target: T1, ghrelin receptor (HEK-GHSR1 stable cells) (Homo sapiens, UniProt Q92847); experiment: Ghrelin receptor inverse agonist assay (HTRF IP-one), Method B4; assay type: cell-based; settings: inverse agonist at the ghrelin receptor, Method B4
T1 construct: expressed in transfected cells
Excerpt: B4. Ghrelin Receptor Inverse Agonist Assay […]
In addition, the following method can be utilized to assay for inverse agonist activity. (Thomsen, W.; et al. Curr. Opin. Biotechnol. 2005, 16, 655-665; Tozawa-Takahashi F; et al., 11th SBS Annual Conference. September 2005, Geneva; Trinquet, E.; Fink, M.; Bazin, H.; et al. Anal. Biochem. 2006, 358, 126-135; Bergsdorf, C.; Kropp-Goerkis, C.; Kaehler, I.; Ketscher, L.; Boerner, U.; Parczyk, K.; Bader, B. Assay Drug Dev. Technol. 2008, 6, 39-53.)
• 1. Remove culture medium from the plate by inversion. • 2. Add 70 μl of compound/well. • 3. Incubate 30 min at 37° C. • 4. Stop the reaction by adding 15 μl of lysis buffer/well. • 5. Add 15 μl of d2/well. • 6. Add 15 μl of Anti-IP1 cryptate/well. • 7. Incubate 1 h at room temp on an orbital shaker at 100 RPM. • 8. Read the fluorescence in a plate reader (Tecan GeniosPro or similar)
The above sequence was performed using the HTRF IP-one kit (CisBio cat#62P1APEC). For the simultaneous assay of multiple test compounds, 96-well plates can be utilized in this assay (white plate with flat-bottom well, Falcon #353296). These were seeded overnight with 100 000 of HEK-GHSR1 stable cells/well. • Wells A1 and A2 of each plate are used as negative control (wells without d2). Compounds are typically tested in replicate at the following concentrations:
Compounds are stored at 10 mM in 100% DMSO.
1st dilution 1/10 in 100% DMSO (1 mM final concentration).
2nd dilution 1/10 in H2O (0.1 mM final concentration).
Other dilutions are performed in a 96-well plate in stimulation buffer.
The results for representative compounds of the invention are provided in the Examples.

[2] = target: T2, human ghrelin receptor (GRLN, growth hormone secretagogue receptor, hGHS-R1a) (Homo sapiens, UniProt Q92847); experiment: Competitive radioligand binding assay (ghrelin receptor), Method B1
T2 construct: purchased PerkinElmer BioSignal #RBHGHSM, lot#1887; host or cells: HEK-293 cells, stably transfected (membranes)
Method: Multiscreen Harvest plates-GF/C (Millipore, #MAHFC1H60) • 4. […] Bottom seal (Millipore, #MATAH0P00) • 7. […] Binding Buffer: 25 mM Hepes (pH 7.4), 1 mM CaCl2, 5 mM MgCl2. 2.5 mM EDTA, 0.4% BSA
Competition experiments were performed in a 300 μl filtration assay format. • 1. 220 μL of membranes diluted in binding buffer • 2. 40 μL of compound diluted in binding buffer • 3.
Compounds were provided frozen on dry ice at a stock concentration of 10 mM diluted in 100% DMSO and stored at −80° C. until the day of testing. On the test day, compounds were allowed to thaw at rt overnight and then diluted in assay buffer according to the desired test concentrations. Under these conditions, the maximal final DMSO concentration in the assay was 0.1%.
Plates were sealed with TopSeal-A, vortexed gently and incubated at rt for 30 min. The reaction was arrested by filtering samples through Multiscreen Harvest plates (pre-soaked in 0.5% polyethyleneimine) using a Tomtec Harvester, washed 9 times with 500 μL of cold 50 mM Tris-HCl (pH 7.4, 4° C.), and then plates were air-dried in a fumehood for 30 min. A bottom seal was applied to the plates prior to the addition of 25 μL of MicroScint-0 to each well. Plates were than sealed with TopSeal-A and counted for 30 sec per well on a TopCount Microplate Scintillation and Luminescence Counter (PerkinElmer) using a count delay of 60 sec. Results were expressed as counts per minute (cpm).
Data were analyzed by GraphPad Prism (GraphPad Software, San Diego, Calif.) using a variable slope non-linear regression analysis. […] Dmax values were calculated using the following formula: […]

[3] = target: T3, GHS-R1a receptor (HEK293 cells expressing GHS-R1a receptor) (Homo sapiens, UniProt Q92847); experiment: Fluorescence functional assay (ghrelin receptor), Method B2, agonist and antagonist mode; assay type: cell-based; settings: functional activity as an antagonist at the ghrelin receptor, Methods B2 and B3
T3 construct: host or cells: HEK293
Method: • 1. ImageTrak Epi-Fluorescence system (Perkin-Elmer) • 2. MultiDrop TiterTek • 3. CO2 incubators: 5% CO2, humidified, 37° C.
• 1. Hanks' BSS without phenol red (Life Technologies) • 2. Hepes buffer • 3. Probenecid (Sigma) • 4. […] Falcon cell culture 96-well black/clear bottom plates • 6. 0.05% trypsin-EDTA • 7. Cells: HEK293 cells expressing GHS-R1a receptor (Perkin-Elmer BioSignal) were grown in DMEM (Dulbecco's Modified Eagles Medium) with 10% FBS, 1% sodium pyruvate, 1% NEAA and 400 μg/mL geneticin • 8. […] [D-Lys^3]-GHRP-6 (reference antagonist, Phoenix #031-22) • 10. Assay buffer: HBSS-20 mM Hepes containing 2.5 mM probenecid and 0.1% BSA (bovine serum albumin); pH 7.4
Stock solutions of compounds (10 mM in 100% DMSO) were provided frozen on dry ice and stored at −80° C. prior to use. […] Assay plates were then prepared by appropriate dilution in assay buffer.
Typical Final Test Concentrations (N=10) for Test Compounds (agonist):
Typical Final Test Concentrations (N=10) for Test Compounds (antagonist):
Cells were maintained in culture as indicated above. The cells were harvested at a confluency of 70-90% the day before the experiment. Growth medium was removed and the cells rinsed briefly with PBS without Ca^+2 and Mg^+2. 0.05% Trypsin was added and the plates incubated at 37° C. for 5 min to detach the cells. DMEM medium supplemented with 10% FBS was added to inactivate the trypsin and determine the cell concentration. The inoculum was adjusted to a final concentration of 200 cells/μL and dispensed at 200 μL per well into a 96-well block plate. The plates were, incubated at 37° C. overnight.
The plates were removed from the incubator and the media removed by inversion of the plates. Calcium-3 dye, 50 μL, was loaded and then incubated for 1 h at 37° C. The plate was again inverted and then 25 μL of assay buffer added. The plates were then transferred to the ImageTrak system for analysis. For agonist testing, after reading for ten (10) sec, 25 μL of 2× test compound or control was injected into the assay plate. Fluorescence was monitored for an additional 50 sec. A reading was taken every two (2) seconds for a total of 30 readings per assay point.
For antagonist testing, after reading for ten (10) sec, 12.5 μL of 3× test compound or control was injected into the assay plate and allowed to react for three (3) min.
Concentration response curves were analyzed using GraphPad Prism (GraphPad Software, San Diego, Calif.) by non-linear regression analysis (sigmoidal dose-response). EC50 values are calculated using GraphPad.
Emax values were calculated using the following formula: […]
Concentration response curves were analyzed using GraphPad Prism (GraphPad Software, San Diego, Calif.) by non-linear regression analysis (sigmoidal dose-response). IC50 values are calculated using GraphPad.
Imax values were calculated using the following formula: […]

[4] = Ghrelin receptor binding activity, Method B1

T2 sequence (Q92847 whole entry): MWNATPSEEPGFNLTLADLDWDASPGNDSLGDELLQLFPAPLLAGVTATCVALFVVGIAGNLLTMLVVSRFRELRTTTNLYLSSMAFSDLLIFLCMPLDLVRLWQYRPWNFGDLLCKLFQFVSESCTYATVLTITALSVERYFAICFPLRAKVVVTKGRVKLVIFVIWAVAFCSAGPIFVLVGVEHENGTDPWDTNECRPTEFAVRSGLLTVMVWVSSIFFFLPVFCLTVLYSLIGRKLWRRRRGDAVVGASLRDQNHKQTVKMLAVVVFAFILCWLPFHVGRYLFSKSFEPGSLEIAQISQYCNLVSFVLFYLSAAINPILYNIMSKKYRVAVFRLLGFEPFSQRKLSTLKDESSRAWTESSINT
T3 sequence (Q92847 whole entry): as above
T1 sequence (Q92847 whole entry): as above

Row | SMILES | IC50 [2, 4] [nM] | Antagonist Activity [3] | further results
1 | CCC(C)C1NCCOc2ccccc2CC(C)CNC(=O)C(Cc2ccccc2)NC(=O)C(C(C)O)N(C)C1=O (mixture of isomers) [Compound 1338] | 10 to 100 | – | IC50 [1]: 100 to 500 nM; Ki [2, 4]: 10 to 100 nM
2 | CCC(C)[C@@H]1NCCOc2ccccc2CC[C@H](C)NC(=O)[C@@H](Cc2ccccc2)NC(=O)[C@H](C(C)O)N(C)C1=O (stereo partly drawn) [Compound 1302] | 10 to 100 | C (C = 10-100 nM) | Ki [2, 4]: 1 to 10 nM
3 | CC(O)[C@H]1C(=O)N[C@H](Cc2ccccc2)C(=O)NC/C=C/c2ccccc2OCCN[C@@H](C2CCCCC2)C(=O)N1C (stereo partly drawn) [Compound 1304] | – | C (C = 10-100 nM) | Ki [2, 4]: 10 to 100 nM
4 | CCC(C)[C@@H]1NCCOc2ccccc2/C=C/[C@H](C)NC(=O)[C@@H](Cc2ccccc2)NC(=O)[C@H](C(C)O)N(C)C1=O (stereo partly drawn) [Compound 1316] | 10 to 100 | D (D = 100-500 nM) | Ki [2, 4]: 10 to 100 nM
5 | CC(O)[C@H]1C(=O)N[C@H](Cc2ccccc2)C(=O)N[C@@H](C)/C=C/c2ccccc2OCCN[C@@H](C2CC2)C(=O)N1C (stereo partly drawn) [Compound 1317] | 10 to 100 | C (C = 10-100 nM) | Ki [2, 4]: 1 to 10 nM
6 | CCC(C)[C@@H]1NCCOc2ccccc2/C=C/CNC(=O)[C@@H](Cc2cccs2)NC(=O)[C@H](C(C)O)N(C)C1=O (stereo partly drawn) [Compound 1332] | 100 to 500 | D (D = 100-500 nM) | Ki [2, 4]: 10 to 100 nM
7 | CCC(C)[C@@H]1NCCOc2cc(F)ccc2CCCNC(=O)[C@@H](Cc2ccccc2)NC(=O)[C@H](C(C)O)N(C)C1=O (stereo partly drawn) [Compound 1343] | – | C (C = 10-100 nM) | Ki [2]: 1 to 10 nM
8 | CC1CCc2ccccc2OCCNC(C(C)C)C(=O)N(C)C(C(C)O)C(=O)NC(Cc2ccccc2O)C(=O)N1 (stereo not drawn) [Compound 1401] | – | B (B = 1-10 nM) | –
9 | CC(C)[C@@H]1NCCOc2ccccc2CC[C@@H](C(F)(F)F)NC(=O)[C@@H](Cc2ccccc2)NC(=O)[C@H](C(C)O)N(C)C1=O (stereo partly drawn) [Compound 1402] | – | B (B = 1-10 nM) | –
10 | CC(C)[C@@H]1NCCOc2ccccc2CC[C@@H](C)NC(=O)[C@@H]([C@H](C)c2ccccc2)NC(=O)[C@H](C(C)O)N(C)C1=O (stereo partly drawn) [Compound 1404] | – | B (B = 1-10 nM) | –
11 | CC1CCc2ccccc2OCCNC(C(C)C)C(=O)N(C)C(C(C)O)C(=O)NC(Cc2c[nH]c3ncccc23)C(=O)N1 (stereo not drawn) [Compound 1408] | – | – | IC50 [1]: 10 to 50 nM
12 | CC(C)[C@@H]1NCCOc2ccccc2CC[C@@H](C)NC(=O)[C@@H](Cc2cc(F)c(F)c(F)c2)NC(=O)[C@H](C(C)O)N(C)C1=O (stereo partly drawn) [Compound 1411] | – | B (B = 1-10 nM) | –
13 | CC(C)[C@@H]1NCCOc2ccccc2CC[C@@H](C)NC(=O)[C@@H](Cc2csc3ccccc23)NC(=O)[C@H](C(C)O)N(C)C1=O (stereo partly drawn) [Compound 1416] | – | A (A <1 nM) | –
14 | CC(C)[C@@H]1NCCOc2ccc(F)cc2CC[C@@H](C)NC(=O)[C@@H](Cc2ccc(F)cc2)NC(=O)[C@H](C(C)O)N(C)C1=O (stereo partly drawn) [Compound 1436] | – | B (B = 1-10 nM) | –
15 | CC(O)[C@H]1C(=O)N[C@H](Cc2c[nH]c3ccccc23)C(=O)N[C@H](C)CCc2cc(F)ccc2OCCN[C@@H](C2CC2)C(=O)N1C (stereo partly drawn) [Compound 1442] | – | C (C = 10-100 nM) | –
16 | COc1cccc(C[C@H]2NC(=O)[C@H](C(C)O)N(C)C(=O)[C@H](C(C)C)NCCOc3cccc(F)c3CC[C@@H](C)NC2=O)c1 (stereo partly drawn) [Compound 1446] | – | B (B = 1-10 nM) | –
17 | CC(C)[C@@H]1NCCOc2cc(F)ccc2CC[C@@H](C)NC(=O)[C@@H](Cc2c[nH]c3ccccc23)NC(=O)[C@H](C(C)O)N(C)C1=O (stereo partly drawn) [Compound 1455] | – | B (B = 1-10 nM) | –
18 | CC(C)[C@@H]1NCCOc2cc(F)ccc2CCCNC(=O)[C@@H](Cc2cccc(Cl)c2)NC(=O)[C@H](C(C)O)N(C)C1=O (stereo partly drawn) [Compound 1460] | – | B (B = 1-10 nM) | –
19 | CC(C)[C@@H]1NCCOc2cc(F)ccc2CC[C@@H](C)NC(=O)[C@@H](Cc2ccc(F)cc2)NC(=O)[C@H](C(C)O)N(C)C1=O (stereo partly drawn) [Compound 1464] | – | B (B = 1-10 nM) | –
20 | CC(O)[C@H]1C(=O)N[C@H](Cc2ccc(Cl)cc2)C(=O)NC/C=C/c2ccccc2OCCN[C@@H](C2CCCCC2)C(=O)N1C (stereo partly drawn) [Compound 1710] | 10 to 100 | – | IC50 [1]: 100 to 500 nM
21 | CC(O)[C@H]1C(=O)N[C@H](Cc2ccc(F)cc2)C(=O)N[C@H](C)CCc2ccccc2OCCN[C@@H](C2CCCCC2)C(=O)N1C (stereo partly drawn) [Compound 1743] | 10 to 100 | – | IC50 [1]: 100 to 500 nM
22 | CC(O)[C@H]1C(=O)N[C@H](Cc2ccc(Cl)cc2)C(=O)NC/C=C/c2ccccc2OCCN[C@@H](C(C)(C)C)C(=O)N1C (stereo partly drawn) [Compound 1768] | 10 to 100 | – | IC50 [1]: 10 to 50 nM
23 | CCC(C)C1NCCOc2ccccc2C=CCNC(=O)C(Cc2ccccc2OC)NC(=O)C(C(C)O)N(C)C1=O (stereo not drawn) [Compound 1795] | 1 to 10 | – | IC50 [1]: 100 to 500 nM
